Reference: patent US9603896B2, “Peptide compounds and methods of production and use thereof” (priority 2012, dated 2017)
Like-named read-outs stand apart in the source and are kept apart here. Square brackets hold non-standard residues; d marks the D form. Ends that are not written are not given here. Peptide text beside a SMILES is read from it. AEEA = NCCOCCOCC(=O)O

Assays:
[1] = system: Pseudomonas aeruginosa ATCC® 27853™; format: cell-based; conditions: for Effects of Peptide Compounds on Pseudomonas aeruginosa ATCC ® 27853 ™: Table 6, 5 × 10^3 CFU/ml unless italicized = 1 × 10^5 CFU/ml
Method: (§1) The three peptide compounds BCC01-5RMP (SEQ ID NO:21), BCC02-5RMP (SEQ ID NO:22), and BCC03-5RMP (SEQ ID NO:23) were assayed for in vitro bactericidal activity against Pseudomonas aeruginosa, Escherichia coli, Salmonella typhimurium, and Acinetobacter baumannii. […] The CFU remaining at the end of 60 to 180 minute incubation was determined, and the data plotted as a log reduction in CFU/ml.
(§2) Tables 4-6 show the results of various peptides and peptide compounds against P. aeruginosa and E. coli strains. Tables 4 and 5 show the results of an investigation of the effects of peptide or peptide compounds BCC03-5RMP (SEQ ID NO:23), BCC03-MP (SEQ ID NO:24) and BCC03-5R (SEQ ID NO:20) against P. aeruginosa ATCC® strain 27853™ and E. coli ATCC® strain 25922™ (American Type Culture Collection, Manassas, Va.). […] Table 6 compares the activity of several other compounds, including the “5R” versions of BCC01, i.e., SEQ ID NO:18 (which comprises SEQ ID NO:1 with five additional arginines), the “5R” version of BCC02 (i.e., SEQ ID NO:19, which comprises SEQ ID NO:2 with five additional arginines), and BCC03-5RMP (SEQ ID NO:23), and BCC03-MP (SEQ ID NO:24, i.e., without the five additional R residues). The data generally indicate the superiority of BCC03-5RMP (SEQ ID NO:23) against E. coli, and the superiority of the 5R or 5RMP versions of the peptide over the “AEEA only” peptide against P. aeruginosa.
For FIGS. 10-13, in vitro bactericidal assays were performed using a starting inoculum of 1×10^6 CFU/ml of the bacterial suspension. The CFU remaining at the end of the 60-180 minute incubation was determined, and the data was plotted as log reduction in CFU/ml.
In particular, each of the test peptides (CAP37 peptides 120-146WR, 120-146WH, and 95-122 (SEQ ID NOs: 30, 31, and 26, respectively)) was used at 25, 12.5, 6.25, and 3.12 μM. Gentamicin was used at 4 μg/ml. 1×10^6/ml Acinetobacter baumannii ATCC® BAA-747″ or Pseudomonas aeruginosa ATCC® 27853™ (American Type Culture Collection, Manassas, Va.) were incubated with the peptides, negative buffer control (tryptone saline), and positive control gentamicin at pH 5.5 or 7.2. A 60 minute incubation was used for Acinetobacter baumannii ATCC® BAA747™, while a 180 minute incubation was used for Pseudomonas aeruginosa ATCC® 27853™. 50 μl aliquots were plated out on agar plates and incubated overnight. Colony forming units were counted after overnight incubation and CFU/ml calculated.
For FIG. 14, 1×10^6/ml Pseudomonas aeruginosa ATCC® 27853™ were incubated with each of the test peptides (CAP37 peptides 120-146WR, 120-146WH, 120-146QR, 120-146QH, 120-146QR-5RMP, and 120-146QH-5RMP (SEQ ID NOs: 30, 31, 28, 29, 32, and 33, respectively)) at 150, 75, and 37.5 μg/ml, or negative buffer control (tryptone saline), for 180 minutes at pH 5.5. 50 μl aliquots were plated out on agar plates and incubated overnight. Colony forming units were counted after overnight incubation and CFU/ml calculated.

[2] = system: E. coli ATCC® strain 25922™; format: cell-based, Escherichia coli; design: Effects of Peptide Compounds on Escherichia coli ATCC ® 25922 ™: unit not given here; conditions: Table 6, 5 × 10^3 CFU/ml unless italicized = 1 × 10^5 CFU/ml
Method: as §1, §2

[3] = system: swine skin; experiment: Swine full thickness excisional dermal wound model; format: in vivo; conditions: for Mean Wound Healing (%): topical 3 mg/ml, 0.20 ml per wound daily
Method: In this Example, peptide compounds of the presently disclosed and claimed inventive concept(s) were evaluated as to their activity on the dermal wound healing process in a clinically relevant swine full thickness excisional wound model. Three different peptide formulations (Group B, Peptide 95-122 (SEQ ID NO:26); Group C, Peptide 120-146WH (SEQ ID NO:31); and Group D, Peptide 120-146QH-5RMP (SEQ ID NO:33)) were each evaluated at the same concentration (3 mg/ml). Sterile saline served as the control (Group A).
Full thickness excisional wounds were induced on the dorsum of swine (N=3) using a 1.0 cm biopsy punch. Treatments were administered (0.20 ml) to each wound (N=6 wounds per group), and the wounds were dressed with standard occlusive dressing ([…]™, 3M Corporation, St. Paul, Minn.). Treatments were reapplied daily and dressings changed. Clinical wound healing observations and wound area (2 mm) measurements were performed on days 0, 3, 5, 7, 10, and 14 post-wounding. Wound area (2 mm) data were expressed as percentage (%) of wound healing. Animals were terminated on day 14 with wounds harvested and processed for histological evaluation. […] All peptide formulation treatment groups healed faster with greater rate of closure and re-epithelialization over time, as compared to the saline control (Group A).

[4] = wounds harvested day 14, 3 mg/ml topical

Compound	Effects of Peptide Compounds on Pseudomonas aeruginosa ATCC ® 27853 ™ ([1]; 6.25 μg/ml)	Effects of Peptide Compounds on Pseudomonas aeruginosa ATCC ® 27853 ™ ([1]; 12.5 μg/ml)	Effects of Peptide Compounds on Pseudomonas aeruginosa ATCC ® 27853 ™ ([1]; 25 μg/ml)	Effects of Peptide Compounds on Pseudomonas aeruginosa ATCC ® 27853 ™ ([1]; 50 μg/ml)	Effects of Peptide Compounds on Pseudomonas aeruginosa ATCC ® 27853 ™ ([1]; 100 μg/ml)	Effects of Peptide Compounds on Pseudomonas aeruginosa ATCC ® 27853 ™ ([1]; 200 μg/ml)	Effects of Peptide Compounds on Pseudomonas aeruginosa ATCC ® 27853 ™ ([1]; 400 μg/ml)	Effects of Peptide Compounds on Escherichia coli ATCC ® 25922 ™ ([2]; 12.5 μg/ml)	Effects of Peptide Compounds on Escherichia coli ATCC ® 25922 ™ ([2]; 25 μg/ml)	Effects of Peptide Compounds on Escherichia coli ATCC ® 25922 ™ ([2]; 50 μg/ml)	Effects of Peptide Compounds on Escherichia coli ATCC ® 25922 ™ ([2]; 100 μg/ml)	Effects of Peptide Compounds on Escherichia coli ATCC ® 25922 ™ ([2]; 200 μg/ml)	Effects of Peptide Compounds on Escherichia coli ATCC ® 25922 ™ ([2]; 400 μg/ml)	further results
RRRRNQGRHFCGGALIHARFVMTAASCFQR (also: cyclized) [SEQ ID NO: 18 (Cyclized)]	100.0	100.0	100.0	100.0	100.0	100.0	100.0	37.9	38.0	49.3	52.6	59.6	82.0	Effects of Peptide Compounds on Pseudomonas aeruginosa ATCC ® 27853 ™ ([1]; 0.78 μg/ml): 99.6; Effects of Peptide Compounds on Pseudomonas aeruginosa ATCC ® 27853 ™ ([1]; 1.56 μg/ml): 98.4; Effects of Peptide Compounds on Pseudomonas aeruginosa ATCC ® 27853 ™ ([1]; 3.125 μg/ml): 100.0
CC[C@H](C)[C@H](NC(=O)[C@H](CC(C)C)NC(=O)[C@H](C)NC(=O)CNC(=O)CNC(=O)[C@H](CS)NC(=O)[C@H](Cc1ccccc1)NC(=O)[C@H](Cc1c[nH]cn1)NC(=O)[C@H](CCCNC(=N)N)NC(=O)CNC(=O)[C@H](CCC(N)=O)NC(=O)[C@H](CC(N)=O)NC(=O)COCCOCCNC(=O)COCCOCCN)C(=O)N[C@@H](Cc1c[nH]cn1)C(=O)N[C@@H](C)C(=O)N[C@@H](CCCNC(=N)N)C(=O)N[C@@H](Cc1ccccc1)C(=O)N[C@H](C(=O)N[C@@H](CCSC)C(=O)N[C@H](C(=O)N[C@@H](C)C(=O)N[C@@H](C)C(=O)N[C@@H](CO)C(=O)N[C@@H](CO)C(=O)N[C@@H](Cc1ccccc1)C(=O)N[C@@H](CCC(N)=O)C(=O)O)[C@@H](C)O)C(C)C [BCC03-MP] (H-[AEEA][AEEA]NQGRHFCGGALIHARFVMTAASSFQ-OH; N-terminus and C-terminus assumed)	−38.2	-45.6	−27.3	−2.9	44.0	74.4	92.8	21.8	27.2	24.6	27.5	46.0	58.2	Effects of Peptide Compounds on Escherichia coli ATCC ® 25922 ™ ([2]; 6.25 μg/ml): 6.4
RRRRNQGRHFCGGALIHARFVMTAASCFQR (5-arginine peptide derivative of CAP37 peptide) [SEQ ID NO: 18 (Linear)]														Effects of Peptide Compounds on Pseudomonas aeruginosa ATCC ® 27853 ™ ([1]; 0.137 μg/ml): 25.4; Effects of Peptide Compounds on Pseudomonas aeruginosa ATCC ® 27853 ™ ([1]; 0.5475 μg/ml): 63.2; Effects of Peptide Compounds on Pseudomonas aeruginosa ATCC ® 27853 ™ ([1]; 2.19 μg/ml): 87.9; Effects of Peptide Compounds on Pseudomonas aeruginosa ATCC ® 27853 ™ ([1]; 8.76 μg/ml): 99.5; Effects of Peptide Compounds on Pseudomonas aeruginosa ATCC ® 27853 ™ ([1]; 87.6 μg/ml): 100.0; Effects of Peptide Compounds on Escherichia coli ATCC ® 25922 ™ ([2]; 43.8 μg/ml): 93.9; Effects of Peptide Compounds on Escherichia coli ATCC ® 25922 ™ ([2]; 87.6 μg/ml): 95.3; Effects of Peptide Compounds on Escherichia coli ATCC ® 25922 ™ ([2]; 175.2 μg/ml): 97.1; Effects of Peptide Compounds on Escherichia coli ATCC ® 25922 ™ ([2]; 262.8 μg/ml): 100.0
CC(C)C[C@H](NC(=O)[C@H](CCCNC(=N)N)NC(=O)CNC(=O)CNC(=O)[C@H](CO)NC(=O)[C@H](Cc1c[nH]cn1)NC(=O)[C@H](CCC(N)=O)NC(=O)[C@H](CO)NC(=O)CNC(=O)[C@H](Cc1c[nH]c2ccccc12)NC(=O)CNC(=O)[C@H](C)NC(=O)[C@@H](NC(=O)[C@H](CCC(N)=O)NC(=O)[C@H](CS)NC(=O)[C@H](CCCNC(=N)N)NC(=O)[C@@H](NC(=O)CNC(=O)[C@H](CCCNC(=N)N)NC(=O)[C@H](CCCNC(=N)N)NC(=O)[C@H](CCCNC(=N)N)NC(=O)[C@H](CCCNC(=N)N)NC(=O)COCCOCCNC(=O)COCCOCCN)[C@@H](C)O)C(C)C)C(=O)N[C@@H](CO)C(=O)N[C@@H](CCCNC(=N)N)C(=O)N[C@@H](Cc1ccccc1)C(=O)N1CCC[C@H]1C(=O)N[C@@H](CCCNC(=N)N)C(=O)N[C@@H](Cc1ccccc1)C(=O)N[C@H](C(=O)N[C@@H](CC(N)=O)C(=O)N[C@H](C(=O)N[C@@H](CCCNC(=N)N)C(=O)O)C(C)C)C(C)C [120-146QH-5RMP] (H-[AEEA][AEEA]RRRRGTRCQVAGWGSQHSGGRLSRFPRFVNVR-OH)														reduction in CFU (FIG. 14) ([1]; pH 5.5, 180 minutes, 75 μg/ml): ~6 log; Mean Wound Healing (%) ([3]; Day 0): 0.0%; Mean Wound Healing (%) ([3]; Day 3): 22.5%; Mean Wound Healing (%) ([3]; Day 5): 34.1%; Mean Wound Healing (%) ([3]; Day 7): 64.1%; Mean Wound Healing (%) ([3]; Day 10): 93.7%; Mean Wound Healing (%) ([3]; Day 14): 98.0%; histology: epidermal resurfacing and maturation vs saline control ([3]; day 14 post-wounding): greater extent of epidermal resurfacing and maturation of the epidermis; dermal wound healing vs saline ([3]; topically at 3 mg/ml, over 14 days): accelerate dermal wound healing; Histopathology Results, Mean Angiogenesis [3, 4]: 1.3; Histopathology Results, Mean Epithelization [3, 4]: 4.0; Histopathology Results, Mean Granulation [3, 4]: 4.0; Histopathology Results, Mean Inflammation [3, 4]: 0.5
